Test results reported in PubChem BioAssay AID248 (DTP/NCI, 2004).
Inconclusive results and toxic doses are left out. Cut-off read from the data, not from the text of the source: active = T/C of 150% or more; inactive = T/C below 125%.

Tested on: L1210 leukemia ip in BDF1 mice, survival T/C
Test: NCI In Vivo Anticancer Drug Screen. Data for tumor model L1210 Leukemia (intraperitoneal) in B6D2F1 (BDF1) mice
Settings: endpoint: mean survival time, higher = longer survival
In short: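 Value reflects the ratio of survival in compound-treated mice to survival in vehicle-treated controls, with both groups carrying the same transplanted tumor.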

[1] = dose: 100.0 mg/kg/injection, schedule: Q04DX002 (ip), vehicle: Klucel (hydroxypropylcellulose) (HPC)
[2] = dose: 200.0 mg/kg/injection, schedule: Q04DX002 (ip), vehicle: Klucel (hydroxypropylcellulose) (HPC)
[3] = dose: 400.0 mg/kg/injection, schedule: Q04DX002 (ip), vehicle: Klucel (hydroxypropylcellulose) (HPC)
[4] = dose: 200.0 mg/kg/injection, schedule: Q01DX001 (ip), vehicle: carboxymethylcellulose (CMC)
[5] = dose: 400.0 mg/kg/injection, schedule: Q01DX001 (ip), vehicle: carboxymethylcellulose (CMC)
[6] = dose: 100.0 mg/kg/injection, schedule: Q01DX009 (ip), vehicle: Klucel (hydroxypropylcellulose) (HPC)
[7] = dose: 200.0 mg/kg/injection, schedule: Q01DX009 (ip), vehicle: Klucel (hydroxypropylcellulose) (HPC)
[8] = dose: 100.0 mg/kg/injection, schedule: Q01DX001 (ip), vehicle: saline
[9] = dose: 200.0 mg/kg/injection, schedule: Q01DX001 (ip), vehicle: saline

Measured: T/C

Nc1cccc(C(=O)O)c1C(=O)O
inactive: dose: 6.25 mg/kg/injection, schedule: Q01DX009 (ip), vehicle: saline with Tween-80 100 % of control | dose: 12.5 mg/kg/injection, schedule: Q01DX009 (ip), vehicle: saline with Tween-80 96 % of control | dose: 25.0 mg/kg/injection, schedule: Q01DX009 (ip), vehicle: saline with Tween-80 91 % of control | dose: 75.0 mg/kg/injection, schedule: Q01DX001 (ip), vehicle: carboxymethylcellulose (CMC) 91 % of control | dose: 100.0 mg/kg/injection, schedule: Q04DX003 (ip), vehicle: Klucel (hydroxypropylcellulose) (HPC) 100 % of control | dose: 150.0 mg/kg/injection, schedule: Q01DX001 (ip), vehicle: carboxymethylcellulose (CMC) 94 % of control | dose: 200.0 mg/kg/injection, schedule: Q04DX003 (ip), vehicle: Klucel (hydroxypropylcellulose) (HPC) 91 % of control

C[N+](C)(C)C12CCC(CC1)C1([N+](C)(C)C)CCC2CC1
inactive: [1] 109 % of control | [2] 113 % of control | [3] 117 % of control

O=NN(CCCl)C(=O)N1CCN(C(=O)N(CCCl)N=O)CC1
inactive: dose: 12.5 mg/kg/injection, schedule: Q01DX001 (ip), vehicle: carboxymethylcellulose (CMC) 112 % of control | dose: 25.0 mg/kg/injection, schedule: Q01DX001 (ip), vehicle: carboxymethylcellulose (CMC) 116 % of control | [4] 95 % of control | dose: 300.0 mg/kg/injection, schedule: Q01DX001 (ip), vehicle: carboxymethylcellulose (CMC) 90 % of control | [5] 87 % of control

CNC(=S)N/N=C/CSC/C=N/NC(=S)NC
inactive: dose: 0.2 mg/kg/injection, schedule: Q03HX024 (ip), vehicle: saline with Tween-80 100 % of control | dose: 0.39 mg/kg/injection, schedule: Q03HX024 (ip), vehicle: saline with Tween-80 97 % of control | dose: 0.78 mg/kg/injection, schedule: Q03HX024 (ip), vehicle: saline with Tween-80 93 % of control | dose: 1.56 mg/kg/injection, schedule: Q03HX024 (ip), vehicle: saline with Tween-80 108 % of control | dose: 3.13 mg/kg/injection, schedule: Q03HX024 (ip), vehicle: saline with Tween-80 100 % of control

CC(C)CCc1c(N)nc(N)nc1N
inactive: dose: 25.0 mg/kg/injection, schedule: Q04DX003 (ip), vehicle: Klucel (hydroxypropylcellulose) (HPC) 93 % of control | dose: 50.0 mg/kg/injection, schedule: Q04DX003 (ip), vehicle: Klucel (hydroxypropylcellulose) (HPC) 96 % of control

O=C1COC(C(Cl)(Cl)Cl)CN1 (stereo unspecified)
inactive: dose: 100.0 mg/kg/injection, schedule: Q01DX001 (ip), vehicle: saline with Tween-80 108 % of control | dose: 200.0 mg/kg/injection, schedule: Q01DX001 (ip), vehicle: saline with Tween-80 105 % of control | dose: 400.0 mg/kg/injection, schedule: Q01DX001 (ip), vehicle: saline with Tween-80 103 % of control

CN(C)S(=O)(=O)N(C)C
inactive: dose: 100.0 mg/kg/injection, schedule: Q01DX001 (ip), vehicle: Klucel (hydroxypropylcellulose) (HPC) 96 % of control | dose: 200.0 mg/kg/injection, schedule: Q01DX001 (ip), vehicle: Klucel (hydroxypropylcellulose) (HPC) 102 % of control | dose: 400.0 mg/kg/injection, schedule: Q01DX001 (ip), vehicle: Klucel (hydroxypropylcellulose) (HPC) 102 % of control

CC(=O)OC1CC(OC2C(O)CC(OC3C(O)CC(OC4CCC5(C)C(CCC6C5CC(O)C5(C)C(C7=CC(=O)OC7)CCC65O)C4)OC3C)OC2C)OC(C)C1OC1OC(CO)C(O)C(O)C1O (stereo unspecified)
inactive: dose: 50.0 mg/kg/injection, schedule: Q01DX001 (sc), vehicle: steriod suspending solution 100 % of control | dose: 75.0 mg/kg/injection, schedule: Q01DX001 (ip), vehicle: other 95 % of control | dose: 100.0 mg/kg/injection, schedule: Q01DX001 (sc), vehicle: steriod suspending solution 109 % of control | dose: 150.0 mg/kg/injection, schedule: Q01DX001 (ip), vehicle: other 97 % of control | dose: 200.0 mg/kg/injection, schedule: Q01DX001 (sc), vehicle: steriod suspending solution 103 % of control | dose: 300.0 mg/kg/injection, schedule: Q01DX001 (ip), vehicle: other 93 % of control | dose: 400.0 mg/kg/injection, schedule: Q01DX001 (sc), vehicle: steriod suspending solution 105 % of control

CCC(CCl)NC(=O)N(N=O)C(CC)CCl (stereo unspecified)
inactive: dose: 16.0 mg/kg/injection, schedule: Q01DX001 (ip), vehicle: carboxymethylcellulose (CMC) 96 % of control | dose: 31.0 mg/kg/injection, schedule: Q01DX001 (ip), vehicle: carboxymethylcellulose (CMC) 102 % of control | dose: 62.0 mg/kg/injection, schedule: Q01DX001 (ip), vehicle: carboxymethylcellulose (CMC) 95 % of control | dose: 125.0 mg/kg/injection, schedule: Q01DX001 (ip), vehicle: carboxymethylcellulose (CMC) 101 % of control | dose: 250.0 mg/kg/injection, schedule: Q01DX001 (ip), vehicle: carboxymethylcellulose (CMC) 91 % of control | dose: 375.0 mg/kg/injection, schedule: Q01DX001 (ip), vehicle: carboxymethylcellulose (CMC) 91 % of control | dose: 500.0 mg/kg/injection, schedule: Q01DX001 (ip), vehicle: carboxymethylcellulose (CMC) 101 % of control | dose: 750.0 mg/kg/injection, schedule: Q01DX001 (ip), vehicle: carboxymethylcellulose (CMC) 91 % of control | dose: 1000.0 mg/kg/injection, schedule: Q01DX001 (ip), vehicle: carboxymethylcellulose (CMC) 93 % of control | dose: 1500.0 mg/kg/injection, schedule: Q01DX001 (ip), vehicle: carboxymethylcellulose (CMC) 98 % of control

COc1ccc2c(c1)c(-n1cc([N+](=O)[O-])nc1C)c(C)n2C(=O)c1ccc(Cl)cc1
inactive: dose: 50.0 mg/kg/injection, schedule: Q01DX009 (ip), vehicle: Klucel (hydroxypropylcellulose) (HPC) 97 % of control | [6] 97 % of control | [7] 93 % of control

N#CCCCC1(CCCC#N)OCCO1
inactive: dose: 25.0 mg/kg/injection, schedule: Q01DX009 (ip), vehicle: saline 94 % of control | dose: 50.0 mg/kg/injection, schedule: Q01DX009 (ip), vehicle: saline 100 % of control

COc1cc([N+](=O)[O-])ccc1NC(=O)Nc1cc(C)ccn1
inactive: [6] 100 % of control | [7] 93 % of control

O=C(/C=C/c1c(Cl)cccc1Cl)c1ccc(Cl)cc1
inactive: dose: 100.0 mg/kg/injection, schedule: Q01DX009 (ip), vehicle: saline with Tween-80 98 % of control | dose: 100.0 mg/kg/injection, schedule: Q04DX003 (ip), vehicle: saline with Tween-80 90 % of control | dose: 200.0 mg/kg/injection, schedule: Q01DX009 (ip), vehicle: saline with Tween-80 95 % of control | dose: 200.0 mg/kg/injection, schedule: Q04DX003 (ip), vehicle: saline with Tween-80 90 % of control | dose: 400.0 mg/kg/injection, schedule: Q01DX009 (ip), vehicle: saline with Tween-80 90 % of control | dose: 400.0 mg/kg/injection, schedule: Q04DX003 (ip), vehicle: saline with Tween-80 91 % of control

CCC1C(=O)OCc2c1cc1n(c2=O)CCC1 (stereo unspecified)
inactive: dose: 25.0 mg/kg/injection, schedule: Q01DX001 (ip), vehicle: saline 113 % of control | dose: 50.0 mg/kg/injection, schedule: Q01DX001 (ip), vehicle: saline 104 % of control | [8] 104 % of control | [9] 115 % of control

O=C(O)c1cccc(C(=O)O)[n+]1[O-]
inactive: dose: 50.0 mg/kg/injection, schedule: Q04DX002 (ip), vehicle: Klucel (hydroxypropylcellulose) (HPC) 101 % of control | [1] 95 % of control

NC(=O)Nc1ccccc1-c1ccccc1
inactive: [1] 103 % of control | [2] 109 % of control | [3] 103 % of control

Cc1[nH]c2ccccc2c1C(c1cc(Cl)cc(Cl)c1O)c1c(C)[nH]c2ccccc12
inactive: dose: 100.0 mg/kg/injection, schedule: Q04DX002 (ip), vehicle: saline with Tween-80 87 % of control | dose: 200.0 mg/kg/injection, schedule: Q04DX002 (ip), vehicle: saline with Tween-80 94 % of control | dose: 400.0 mg/kg/injection, schedule: Q04DX002 (ip), vehicle: saline with Tween-80 91 % of control

CC(=O)CC(=O)Nc1ccc(NC(C)=O)cc1
inactive: [8] 96 % of control | [9] 100 % of control | dose: 400.0 mg/kg/injection, schedule: Q01DX001 (ip), vehicle: saline 105 % of control

COC(=O)c1cc(C)cc(N2c3ccccc3-c3cc(C)ccc3S2(=O)=O)c1C
inactive: dose: 100.0 mg/kg/injection, schedule: Q01DX001 (ip), vehicle: carboxymethylcellulose (CMC) 104 % of control | [4] 102 % of control | [5] 96 % of control
